Reference: ChEMBL document CHEMBL4665887, “Identification, Structure-Activity Relationships of Marine-Derived Indolocarbazoles, and a Dual PKCθ/δ Inhibitor with Potent Antipancreatic Cancer Efficacy” (J Med Chem, 2020)

Assays:
[1] = system: PC-9; test: Cytotoxicity in human PC-9 cells assessed as reduction in cell viability incubated for 24 hrs by CCK8 assay; assay type: functional, cell-based; details: PC-9, 24 h
[2] = biological target: Protein kinase C delta type (Homo sapiens, UniProt Q05655); test: Inhibition of PKCdelta (unknown origin) by HTRF assay
Chain of Protein kinase C delta type (Q05655 whole entry): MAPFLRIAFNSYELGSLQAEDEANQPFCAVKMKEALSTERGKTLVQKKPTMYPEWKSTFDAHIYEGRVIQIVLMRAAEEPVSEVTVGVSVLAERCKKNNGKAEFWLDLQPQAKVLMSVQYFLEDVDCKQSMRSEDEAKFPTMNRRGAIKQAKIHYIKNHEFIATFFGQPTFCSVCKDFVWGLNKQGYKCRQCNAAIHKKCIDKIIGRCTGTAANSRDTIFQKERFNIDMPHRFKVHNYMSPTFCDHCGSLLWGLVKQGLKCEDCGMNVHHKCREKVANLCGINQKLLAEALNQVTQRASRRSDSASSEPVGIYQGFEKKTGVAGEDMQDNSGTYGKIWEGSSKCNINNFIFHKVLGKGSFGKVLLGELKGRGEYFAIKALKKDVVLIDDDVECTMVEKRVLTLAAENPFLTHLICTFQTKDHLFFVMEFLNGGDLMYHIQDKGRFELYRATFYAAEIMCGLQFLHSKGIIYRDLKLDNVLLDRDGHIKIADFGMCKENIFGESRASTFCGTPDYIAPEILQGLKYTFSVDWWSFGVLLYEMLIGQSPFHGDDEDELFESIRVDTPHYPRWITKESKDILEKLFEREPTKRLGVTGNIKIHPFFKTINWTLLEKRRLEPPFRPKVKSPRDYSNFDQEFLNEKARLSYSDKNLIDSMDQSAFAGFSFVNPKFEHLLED

[3] = system: MGC-803; test: Cytotoxicity in human MGC-803 cells assessed as reduction in cell viability incubated for 24 hrs by CCK8 assay; assay type: functional, cell-based; details: MGC-803, 24 h
[4] = system: BXPC-3; test: Induction of apoptosis in human BXPC-3 cells assessed as viable cells level at 0.5 uM incubated for 24 hrs by PI and annexin V-FITC staining based flow cytometry (reference value: 93.43%); assay type: functional
[5] = Antitumor activity against patient-derived pancreatic cancer cells xenografted in BALB/c mouse model of patient-derived xenograft assessed as inhibition of tumor growth at 6 mg/kg, iv dosed once every 2 days for 18 days relative to control; assay type: functional; details: Homo sapiens, Pancreatic cancer cell, 432 h, time 18 day, read-out: TGI
[6] = system: BXPC-3; test: Induction of apoptosis in human BXPC-3 cells assessed as viable cells level at 0.25 uM incubated for 24 hrs by PI and annexin V-FITC staining based flow cytometry (reference value: 93.43%); assay type: functional
[7] = system: BXPC-3; test: Induction of apoptosis in human BXPC-3 cells assessed as early apoptotic cells level at 0.5 uM incubated for 24 hrs by PI and annexin V-FITC staining based flow cytometry (reference value: 5.69%); assay type: functional
[8] = system: BXPC-3; test: Induction of apoptosis in human BXPC-3 cells assessed as necrotic cells level at 0.5 uM incubated for 24 hrs by PI and annexin V-FITC staining based flow cytometry (reference value: 0.05%); assay type: functional
[9] = system: ASPC1; test: Cytotoxicity in human ASPC1 cells assessed as reduction in cell viability incubated for 24 hrs by CCK8 assay; assay type: functional, cell-based; details: ASPC1, 24 h
[10] = Toxicity in BALB/c mouse model of patient-derived xenograft implanted with patient-derived pancreatic cancer cells assessed as effect on normal anatomical structures of kidney at 6 mg/kg, iv dosed once every 2 days for 18 days relative to control; assay type: organism-based; details: in vivo, 432 h, time 18 day
[11] = Toxicity in BALB/c mouse model of patient-derived xenograft implanted with patient-derived pancreatic cancer cells assessed as effect on body weight at 6 mg/kg, iv dosed once every 2 days for 18 days relative to control; assay type: organism-based; details: in vivo, 432 h, time 18 day
[12] = biological target: Protein kinase C theta type (Homo sapiens, UniProt Q04759); test: Inhibition of PKCtheta (unknown origin) by HTRF assay
Chain of Protein kinase C theta type (Q04759 whole entry): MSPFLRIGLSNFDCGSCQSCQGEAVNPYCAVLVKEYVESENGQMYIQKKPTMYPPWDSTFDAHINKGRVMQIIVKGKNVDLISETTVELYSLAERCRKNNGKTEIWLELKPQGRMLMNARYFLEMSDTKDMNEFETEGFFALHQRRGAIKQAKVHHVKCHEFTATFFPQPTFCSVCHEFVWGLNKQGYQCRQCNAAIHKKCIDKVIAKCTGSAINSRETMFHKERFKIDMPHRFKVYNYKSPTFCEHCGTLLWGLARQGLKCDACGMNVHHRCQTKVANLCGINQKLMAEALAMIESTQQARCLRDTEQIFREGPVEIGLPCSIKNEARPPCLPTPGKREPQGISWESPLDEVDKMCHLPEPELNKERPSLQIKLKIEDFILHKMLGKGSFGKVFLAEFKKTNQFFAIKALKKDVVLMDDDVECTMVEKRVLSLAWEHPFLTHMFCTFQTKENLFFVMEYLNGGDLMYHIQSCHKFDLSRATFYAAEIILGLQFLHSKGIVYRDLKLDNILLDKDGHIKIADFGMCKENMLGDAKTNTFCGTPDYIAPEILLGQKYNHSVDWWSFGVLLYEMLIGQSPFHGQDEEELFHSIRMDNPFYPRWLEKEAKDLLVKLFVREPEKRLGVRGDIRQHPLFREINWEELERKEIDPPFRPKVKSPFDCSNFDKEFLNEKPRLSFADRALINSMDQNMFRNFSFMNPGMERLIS

[13] = system: NCI-H1975; test: Cytotoxicity in human NCI-H1975 cells assessed as reduction in cell viability incubated for 24 hrs by CCK8 assay; assay type: functional, cell-based; details: NCI-H1975, 24 h
[14] = Toxicity in BALB/c mouse model of patient-derived xenograft implanted with patient-derived pancreatic cancer cells assessed as effect on normal anatomical structures of liver at 6 mg/kg, iv dosed once every 2 days for 18 days relative to control; assay type: organism-based; details: in vivo, 432 h, time 18 day
[15] = Toxicity in BALB/c mouse model of patient-derived xenograft implanted with patient-derived pancreatic cancer cells assessed as effect on normal anatomical structures of spleen at 6 mg/kg, iv dosed once every 2 days for 18 days relative to control; assay type: organism-based; details: in vivo, 432 h, time 18 day
[16] = system: RKO; test: Cytotoxicity in human RKO cells assessed as reduction in cell viability incubated for 24 hrs by CCK8 assay; assay type: functional, cell-based
[17] = system: A549; test: Cytotoxicity in human A549 cells assessed as reduction in cell viability incubated for 24 hrs by CCK8 assay; assay type: functional, cell-based; details: A549, 24 h
[18] = system: NCI-H1299; test: Cytotoxicity in human NCI-H1299 cells assessed as reduction in cell viability incubated for 24 hrs by CCK8 assay; assay type: functional, cell-based; details: NCI-H1299, 24 h
[19] = Toxicity in nude BALB/c mouse xenografted with human BXPC-3 cells assessed as effect on body weight level at 6 mg/kg, iv QD for 18 days relative to control; assay type: organism-based; details: in vivo, 432 h, time 18 day
[20] = system: BXPC-3; test: Cytotoxicity in human BXPC-3 cells assessed as reduction in cell viability incubated for 24 hrs by CCK8 assay; assay type: functional, cell-based; details: BXPC-3, 24 h
[21] = system: BXPC-3; test: Induction of apoptosis in human BXPC-3 cells assessed as late apoptotic cells level at 0.25 uM incubated for 24 hrs by PI and annexin V-FITC staining based flow cytometry (reference value: 0.83%); assay type: functional
[22] = system: BXPC-3; test: Induction of apoptosis in human BXPC-3 cells assessed as late apoptotic cells level at 0.5 uM incubated for 24 hrs by PI and annexin V-FITC staining based flow cytometry (reference value: 0.83%); assay type: functional
[23] = system: BXPC-3; test: Induction of apoptosis in human BXPC-3 cells assessed as early apoptotic cells level at 0.25 uM incubated for 24 hrs by PI and annexin V-FITC staining based flow cytometry (reference value: 5.69%); assay type: functional
[24] = system: BXPC-3; test: Induction of apoptosis in human BXPC-3 cells assessed as necrotic cells level at 0.25 uM incubated for 24 hrs by PI and annexin V-FITC staining based flow cytometry (reference value: 0.05%); assay type: functional
[25] = Toxicity in BALB/c mouse model of patient-derived xenograft implanted with patient-derived pancreatic cancer cells assessed as effect on normal anatomical structures of lung at 6 mg/kg, iv dosed once every 2 days for 18 days relative to control; assay type: organism-based; details: in vivo, 432 h, time 18 day
[26] = Effect in PKCtheta protein expression in human BXPC-3 cells at 0.25 to 1 uM incubated for 4 hrs by Western blot analysis; assay type: ADME, cell-based; details: bxpc-3, 4 h, dose 0.25-1 µM
[27] = system: BXPC-3; test: Antitumor activity against human BXPC-3 cells xenografted in nude BALB/c mouse assessed as inhibition of tumor growth at 6 mg/kg, iv QD for 18 days relative to control; assay type: functional; details: BXPC-3, iv, 432 h, time 18 day, read-out: TGI
[28] = Toxicity in BALB/c mouse model of patient-derived xenograft implanted with patient-derived pancreatic cancer cells assessed as effect on normal anatomical structures of heart at 6 mg/kg, iv dosed once every 2 days for 18 days relative to control; assay type: organism-based; details: in vivo, 432 h, time 18 day

`CN[C@@H]1C[C@H]2O[C@@](C)([C@@H]1OC)n1c3ccccc3c3c4c(c5c6ccccc6n2c5c31)C(=O)NC4=O` (stereo in doubt; 15) gave an IC50 [1] of 1880 nM, an IC50 [2] of 21 nM and an IC50 [3] of 1520 nM. For the same compound, the Activity [4] was 46.45%, the inhibition in vivo at 6 mg/kg [5] was 56.9% and the Activity [6] was 63.54%. The Activity [7] was 46.07%, the Activity [8] was 0.59% and the IC50 [9] was 1200 nM. For the same compound, the Activity [10] was “Non-Toxic”, the Activity [11] was “Non-Toxic” and the IC50 [12] was 6 nM. For the same compound, the IC50 [13] was 2010 nM, the Activity [14] was “Non-Toxic” and the Activity [15] was “Non-Toxic”. It also gave an IC50 [16] of 1470 nM, an IC50 [17] of 780 nM and an IC50 [18] of 2030 nM. For the same compound, the Activity [19] was “Non-Toxic”, the IC50 [20] was 430 nM and the Activity [21] was 2.66%. For the same compound, the Activity [22] was 6.89%, the Activity [23] was 33.77% and the Activity [24] was 0.04%. For the same compound, the Activity [25] was “Non-Toxic”, the Activity [26] was “Non-Toxic” and the inhibition in vivo at 6 mg/kg [27] was 49.6%. For the same compound, the Activity [28] was “Non-Toxic”.
